Patent publication EP0969089A1, “Phytase formulation” (F. HOFFMANN-LA ROCHE AG, priority 1998, dated 2000)
Where two headings read alike, the source gives them in different places.

How the values were obtained:
A. fumigatus phytase = molecular target: T1, A. fumigatus phytase (Aspergillus fumigatus, UniProt O00092); assay type: biochemical; conditions: for effect on the thermostabilization of A. fumigatus phytase: polyols with more than 6 or less than 5 carbon atoms, 65 °C; for effects on the thermostability of the protein: sodium acetate 5, 10 and 25%; for temperature at which considerable activity still being detected: dicarboxylate at 25% (12.5% final concentration in the activity assay); for increase in phytase activity measured at 37 °C: dicarboxylates
T1 construct: made in house; host or cells: Hansenula polymorpha
Protocol: (§1) After incubation of the sample for 15 mm at the desired temperature (e.g. at 60 or 65 °C for the screening of additive effects), the reaction was stopped by addition of 0.5 ml 15% trichloroacetic acid. Determination of liberated inorganic phosphate was performed by standard methods.
(§2) Disodium malonate, succinate and glutarate were dissolved at concentrations of 5, 10 and 25% and phytase activity was measured after preincubation of enzyme plus additive and substrate (see above) at the following temperatures: 37, 45, 50, 55, 60, 65, 70, 75, 80, and 85 °C. In the same way, the temperature dependence of the activity of different phytases in the presence of 25% xylitol and ribitol was tested. It should be noted that the concentration of the additives was reduced by half after substrate addition.

[1] = Solubility of polyols in assay buffer; conditions: at a concentration of 50% (w/w)
Protocol: PEGs have been dissolved at a concentration of 50% with the exception of PEGs with a molecular weight of 4000, 8000 and 10000 which were used at a concentration of 25%. For the screening of PEGs and other polyols, the preincubation and reaction temperature was chosen as 60 °C for A. nidulans and A. terreus CBS phytase, 65 °C for A. fumigatus and A. niger phytase and 75 °C for consensus phytase.

A. niger phytase = molecular target: T2, A. niger phytase (Aspergillus niger, UniProt P34752); assay: Effect of stabilizing additives on thermostability of A. niger phytase; assay type: biochemical; conditions: 25% dicarboxylate
T2 construct: made in house; host or cells: Aspergillus niger
Protocol: as §1, §2

A. terreus CBS phytase = molecular target: T3, A. terreus CBS phytase (Aspergillus terreus, UniProt O00100); assay: Effect of stabilizing additives on thermostability of A. terreus CBS phytase; assay type: biochemical; conditions: 25% dicarboxylate
T3 construct: made in house; host or cells: Hansenula polymorpha
Protocol: as §1, §2

A. nidulans phytase = molecular target: T4, A. nidulans phytase (Emericella nidulans, UniProt O00093); assay: Effect of stabilizing additives on thermostability of A. nidulans phytase; assay type: biochemical, Aspergillus nidulans; conditions: 25% dicarboxylate
T4 construct: made in house; host or cells: Aspergillus niger
Protocol: as §1, §2

consensus phytase = assay: Effect of stabilizing additives on thermostability of consensus phytase; assay type: biochemical; conditions: for increase of thermostability: 25% dicarboxylate
Protocol: as §1
Disodium malonate, succinate and glutarate were dissolved at concentrations of 5, 10 and 25% and phytase activity was measured after preincubation of enzyme plus additive and substrate (see above) at the following temperatures: 37, 45, 50, 55, 60, 65, 70, 75, 80, and 85 °C. […] It should be noted that the concentration of the additives was reduced by half after substrate addition.

[2] = in the presence of 50% solutions of polyol
[3] = polyol at a concentration of 12.5%
[4] = polyol at a concentration of 25%

T1 sequence (O00092 27-465): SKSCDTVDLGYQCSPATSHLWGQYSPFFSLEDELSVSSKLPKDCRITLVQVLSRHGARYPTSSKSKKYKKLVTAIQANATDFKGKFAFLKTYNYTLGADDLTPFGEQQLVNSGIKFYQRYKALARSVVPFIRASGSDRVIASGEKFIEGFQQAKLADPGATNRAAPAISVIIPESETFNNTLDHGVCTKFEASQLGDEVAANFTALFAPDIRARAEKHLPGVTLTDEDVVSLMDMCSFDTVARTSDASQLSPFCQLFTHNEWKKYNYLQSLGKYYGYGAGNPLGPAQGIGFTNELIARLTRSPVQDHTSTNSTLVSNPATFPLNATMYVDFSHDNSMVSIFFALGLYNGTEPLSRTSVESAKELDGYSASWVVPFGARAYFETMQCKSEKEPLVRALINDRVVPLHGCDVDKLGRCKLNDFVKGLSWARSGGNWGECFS
T3 sequence (O00100 20-466): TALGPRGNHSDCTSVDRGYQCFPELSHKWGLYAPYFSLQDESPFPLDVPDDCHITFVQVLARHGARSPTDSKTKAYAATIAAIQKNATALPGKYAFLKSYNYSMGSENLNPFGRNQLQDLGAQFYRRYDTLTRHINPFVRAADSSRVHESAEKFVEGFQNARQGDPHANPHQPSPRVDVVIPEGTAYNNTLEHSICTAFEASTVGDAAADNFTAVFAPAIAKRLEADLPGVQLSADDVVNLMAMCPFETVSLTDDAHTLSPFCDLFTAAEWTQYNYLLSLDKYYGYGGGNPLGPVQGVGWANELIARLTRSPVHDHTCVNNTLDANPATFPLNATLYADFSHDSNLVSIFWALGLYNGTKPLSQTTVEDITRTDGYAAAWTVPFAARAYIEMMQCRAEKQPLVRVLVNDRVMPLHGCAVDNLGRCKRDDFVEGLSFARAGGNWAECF
T4 sequence (O00093 20-463): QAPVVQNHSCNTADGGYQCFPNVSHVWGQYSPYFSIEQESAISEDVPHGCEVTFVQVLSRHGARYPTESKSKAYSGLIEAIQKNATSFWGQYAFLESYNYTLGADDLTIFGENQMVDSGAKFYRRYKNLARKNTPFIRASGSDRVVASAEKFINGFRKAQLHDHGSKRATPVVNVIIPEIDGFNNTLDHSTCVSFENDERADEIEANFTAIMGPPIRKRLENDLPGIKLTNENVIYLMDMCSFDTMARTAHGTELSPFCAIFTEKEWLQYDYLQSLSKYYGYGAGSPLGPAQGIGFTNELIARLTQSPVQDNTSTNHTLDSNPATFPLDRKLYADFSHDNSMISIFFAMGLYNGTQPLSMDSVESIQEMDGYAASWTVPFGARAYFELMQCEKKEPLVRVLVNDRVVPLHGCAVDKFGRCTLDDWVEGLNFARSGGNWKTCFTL
T2 sequence (P34752 24-467): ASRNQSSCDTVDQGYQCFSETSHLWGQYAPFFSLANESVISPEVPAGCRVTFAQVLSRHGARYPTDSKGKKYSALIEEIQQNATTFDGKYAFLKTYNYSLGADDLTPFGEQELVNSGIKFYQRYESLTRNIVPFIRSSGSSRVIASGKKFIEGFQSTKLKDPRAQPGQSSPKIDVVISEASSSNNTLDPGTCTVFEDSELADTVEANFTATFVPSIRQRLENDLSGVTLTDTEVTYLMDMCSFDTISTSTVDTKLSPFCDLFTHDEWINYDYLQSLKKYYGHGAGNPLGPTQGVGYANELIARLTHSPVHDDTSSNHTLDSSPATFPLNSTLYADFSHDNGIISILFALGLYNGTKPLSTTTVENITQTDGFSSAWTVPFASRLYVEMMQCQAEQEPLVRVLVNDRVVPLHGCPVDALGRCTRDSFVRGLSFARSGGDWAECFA

For `O=C[C@@H](O)[C@@H](O)[C@H](O)[C@H](O)[C@H](O)CO` [mannoheptose], the “effect on the thermostabilization of A. fumigatus phytase” value (shortened to “effect on the thermostabilization”) (A. fumigatus phytase) was “inferior effect” and the “solubility in 0.2 M sodium acetate, pH 5.0” value (from here on “solubility”) [1] was “not soluble”.

For `CC(=O)O` [sodium acetate], the “effects on the thermostability of the protein” value (A. fumigatus phytase) was “only minor effects” and the “effects on the thermostability of the protein” value (A. fumigatus phytase; listed as Sodium acetate) was “no effect”.

For `O=C(CO)[C@@H](O)[C@@H](O)[C@H](O)[C@H](O)CO` [mannoheptulose], the “effect on the thermostabilization” value (A. fumigatus phytase) was “inferior effect” and the “solubility” value [1] was “not soluble”.

With `O=C(O)CC(=O)O` [malonate, disodium malonate] the increase of thermostability (A. niger phytase) was 5-15 °C, the increase of thermostability (A. terreus CBS phytase) was 5-15 °C and the “temperature at which considerable activity still being detected” value (A. fumigatus phytase) was 70 °C. The “increase in phytase activity measured at 37 °C” value (A. fumigatus phytase) was “approximately 4 fold”, the increase of thermostability (A. nidulans phytase) was 5-15 °C and the increase of thermostability (consensus phytase) was 5-15 °C.

With `OC[C@@H](O)[C@@H](O)[C@@H](O)CO` [ribitol] the “specific activities measured at 65 °C” value (A. fumigatus phytase; in the presence of 25% polyol) was 11 U*(mg protein)^-1, the “specific activities measured at 65 °C” value (A. fumigatus phytase; [2]) was 51 U*(mg protein)^-1 and the “specific activity measured at 65 °C” value (A. fumigatus phytase; [3]) was 11-12 U/mg. The “specific activity measured at 65 °C” value (A. fumigatus phytase; [4]) was 51-90 U/mg.

For `OC[C@@H](O)[C@@H](O)[C@H](O)[C@@H](O)CO` [sorbitol], the “specific activities measured at 65 °C” value (A. fumigatus phytase; in the presence of 25% polyol) was 11 U*(mg protein)^-1 and the “specific activities measured at 65 °C” value (A. fumigatus phytase; [2]) was 74 U*(mg protein)^-1.

For `OCC(O)CO` [glycerol], the “effect on the thermostabilization” value (A. fumigatus phytase) was “inferior effect”.

For `OC[C@@H](O)[C@@H](O)CO` [erythritol], the “effect on the thermostabilization” value (A. fumigatus phytase) was “inferior effect” and the “solubility” value [1] was “not soluble”.

In the case of `O=C(O)CCC(=O)O` [succinate, disodium succinate], the increase of thermostability (A. niger phytase) is reported as 5-15 °C, the increase of thermostability (A. terreus CBS phytase) is reported as 5-15 °C and the “temperature at which considerable activity still being detected” value (A. fumigatus phytase) is reported as 65 °C. The “increase in phytase activity measured at 37 °C” value (A. fumigatus phytase) was 2 fold, the increase of thermostability (A. nidulans phytase) was 5-15 °C and the increase of thermostability (consensus phytase) was 5-15 °C.

In the case of `OC[C@@H](O)[C@H](O)[C@@H](O)CO` [xylitol], the “specific activities measured at 65 °C” value (A. fumigatus phytase; in the presence of 25% polyol) is reported as 21 U*(mg protein)^-1, the “specific activities measured at 65 °C” value (A. fumigatus phytase; [2]) is reported as 90 U*(mg protein)^-1 and the “specific activity measured at 65 °C” value (A. fumigatus phytase; [3]) is reported as 11-12 U/mg. For the same molecule, the “specific activity measured at 65 °C” value (A. fumigatus phytase; [4]) was 51-90 U/mg and the “increase of temperature optimum” value (consensus phytase; xylitol 50%) was 10-15 °C.
